Where a name gives a salt, the structure may show the parent alone. Read-outs that look alike come from different tables or passages of the source. Square brackets hold non-standard residues; d marks the D form. Peptide text beside a SMILES is read from it. * marks the point of attachment. Sta = CC(C)C[C@H](N)[C@@H](O)CC(=O)O; Isovaleryl = CC(C)CC(=O)*
Tested on: PRKACA-PRKAR2A interaction (SmBiT-PRKACA / LgBiT-PRKAR2A), protein kinase A
Set-up: NanoLuc complementation counter-screen in cell extract, PRKACA with PRKAR2A, loss of luminescence, detects NanoLuc interference
Conditions: 0.5 h, 20 µM, inhibitor
[1] = counter-screen for NanoLuc interference
[2] = counter-screen for NanoLuc interference, Inh (PKA)

Row | Structure (SMILES) | Inh (PKA) [1] | also measured
1 | Fc1cc(F)c2c(c1)[C@H]1C=CC[C@H]1C(c1cccnc1)N2 (mixture of isomers) [UM0142231:01, Golgicide A] | 20.05% | –
2 | CC(=O)N1CCN(c2ccc(OC[C@@H]3CO[C@@](Cn4ccnc4)(c4ccc(Cl)cc4Cl)O3)cc2)CC1 (racemic) [UM0118636:05, Ketoconazole] | 5.554% | –
3 | CC1COC2(CCN(c3nc(=O)c4cc(C(F)(F)F)cc([N+](=O)[O-])c4s3)CC2)O1 (racemic) [UM0141871:01, BTZ043 Racemate] | 1.801% | –
4 | O[C@@H](CNC[C@H](O)[C@H]1CCc2cc(F)ccc2O1)[C@@H]1CCc2cc(F)ccc2O1 (racemic) [UM0142211:01, Nebivolol] | 3.79% | –
5 | O=C1NC(=O)C(=Cc2ccc(-c3ccc(F)cc3)o2)S1 (stereo in doubt) [UM0142434:01, CAY10505] | 43.9% | –
6 | CN(C)Cc1cccc(N/C(=C2\C(=O)Nc3cc(C(=O)N(C)C)ccc32)c2ccccc2)c1 [BIX02189] | 9.078% | –
7 | Oc1ccc(Nc2nc(-c3ccc(Cl)cc3)cs2)cc1 [UM0013692:02, SKI II] | 14.65% | –
8 | O=C(O)c1ccccc1O [UM0038620:02, Salicylic acid] | 0.4961% | –
9 | O=C(Oc1cc(S(=O)(=O)c2ccccc2)ccc1[N+](=O)[O-])c1ccc(Cl)cc1 [UM0041523:03, BTB06584] | 10.87% | –
10 | COc1cc2ncnc(Nc3cccc(Cl)c3)c2cc1OC [UM0044591:06, AG-1478] | 16.45% | –
11 | COc1ccc2[nH]c([S+]([O-])Cc3ncc(C)c(OC)c3C)nc2c1 (stereo not drawn) [UM0048901:05, Omeprazole] | -0.07908% | –
12 | OC[C@@H](O)[C@@H](O)[C@@H](O)CO [UM0050273:04, Ribitol] | 0.444% | –
13 | OC[C@@H](O)[C@H](O)[C@@H](O)CO [UM0050273:05, Xylitol] | -1.935% | –
14 | Oc1c2ccccc2c2c3c(cccc13)N=N2 [UM0051399:06, SP 600125] | 23.18% | –
15 | Cn1c(=O)c2c(ncn2CC(O)CO)n(C)c1=O (stereo not drawn) [UM0052188:04, Dyphylline] | 1.648% | –
16 | COC(=O)C1=CCCN(C)C1 [UM0053253:04, Arecoline hydrobromide] | – | Inh (PKA): -0.2973%
17 | CC(C)(C)c1cc(C(=O)/C(C#N)=N/Nc2cccc(Cl)c2)no1 [UM0055456:02, ESI-09] | 77.71% | –
18 | O=C(O)CCc1nc(-c2ccccc2)c(-c2ccccc2)o1 [UM0056108:04, Oxaprozin] | 7.48% | –
19 | CN(C)NC(=O)CCC(=O)O [UM0056235:02, Daminozide] | – | Inh (PKA): 2.677%
20 | CCOC(=O)c1ccc(NC2CCCCC2)c(N)c1 [UM0065946:02, Ferrostatin-1 (Fer-1)] | 10.75% | –
21 | CC(=O)Nc1ccc(NC(=S)NC(=O)c2ccc(C(C)(C)C)cc2)cc1 [UM0075879:02, Tenovin-1] | 12.95% | –
22 | CCN(CC)CCOC(=O)C(c1ccccc1)c1ccccc1 [UM0118069:03, Adiphenine HCl] | 2.953% | –
23 | CN(C)CCC=C1c2ccccc2CCc2ccccc21 [UM0118081:03, Amitriptyline HCl] | 6.05% | –
24 | COc1ccc(C(Cl)=C(c2ccc(OC)cc2)c2ccc(OC)cc2)cc1 [UM0118083:03, Chlorotrianisene] | 17.63% | –

Row | Structure (SMILES) | Inh (PKA) [1] | also measured
25 | CCCCC(CC)CNC(=N)NC(=N)NCCCCCCNC(=N)NC(=N)NCC(CC)CCCC (stereo not drawn) [UM0118099:03, Alexidine dihydrochloride] | 24.16% | –
26 | CN(C)CCCN1c2ccccc2Sc2ccc(Cl)cc21 [UM0118114:03, Chlorpromazine HCl] | 15.72% | –
27 | Cc1oncc1C(=O)Nc1ccc(C(F)(F)F)cc1 [UM0118141:03, Leflunomide] | 16.35% | –
28 | O=C(O)Cc1ccccc1Nc1c(Cl)cccc1Cl [UM0118146:04, Diclofenac Sodium] | – | Inh (PKA) [2]: 5.073%
29 | Cn1c(=O)c2[nH]cnc2n(C)c1=O [UM0118147:03, Aminophylline] | 0.6753% | –
30 | C=C(C)[C@@H]1CC[C@]2(C(=O)O)CC[C@]3(C)[C@H](CC[C@@H]4[C@@]5(C)CC[C@H](O)C(C)(C)[C@@H]5CC[C@]43C)[C@@H]12 [UM0118149:03, Betulinic acid] | 14.84% | –
31 | C[C@H](CS)C(=O)N1CCC[C@H]1C(=O)O [UM0118157:03, Captopril] | 5.226% | –
32 | CCCC(C(=O)OCCN(CC)CC)(c1ccccc1)c1ccccc1 [UM0118177:04, SKF 525A (hydrochloride)] | 14.38% | –
33 | OCCN(CCO)c1nc(N2CCCCC2)c2nc(N(CCO)CCO)nc(N3CCCCC3)c2n1 [UM0118197:03, Dipyridamole] | 27.31% | –
34 | NCC1(CC(=O)O)CCCCC1 [UM0118203:03, Gabapentin] | – | Inh (PKA) [2]: 0.7345%
35 | CCN(CC)C(=S)SSC(=S)N(CC)CC [UM0118234:04, Disulfiram] | 21.36% | –
36 | CC[N+](C)(C)c1cccc(O)c1 [UM0118243:03, Edrophonium (chloride)] | -0.559% | –
37 | CC(C)C(=O)Nc1ccc([N+](=O)[O-])c(C(F)(F)F)c1 [UM0118278:03, Flutamide] | 16.36% | –
38 | CC[N+](CC)(CC)CCOc1cccc(OCC[N+](CC)(CC)CC)c1OCC[N+](CC)(CC)CC [UM0118287:03, Gallamine Triethiodide] | 0.3342% | –
39 | COc1ccc2c(c1)[nH]c1c(C)nccc12 [UM0118303:03, Harmine hydrochloride] | 2.69% | –
40 | CN(C)CCCN1c2ccccc2CCc2ccccc21 [UM0118324:03, Imipramine (hydrochloride)] | 3.952% | –
41 | COC(=O)Nc1nc2cc(C(=O)c3ccccc3)ccc2[nH]1 [UM0118348:03, Mebendazole] | 8.731% | –
42 | COc1ccc2[nH]cc(CCNC(C)=O)c2c1 [UM0118349:03, Melatonin] | -1.159% | –
43 | COC(=O)Nc1nc2cc(C(=O)c3cccs3)ccc2[nH]1 [UM0118368:03, Nocodazole] | 9.707% | –
44 | CNCCC=C1c2ccccc2CCc2ccccc21 [UM0118370:03, Nortriptyline (hydrochloride)] | 4.028% | –
45 | C#CCN(C)Cc1ccccc1 [UM0118374:03, Pargyline (hydrochloride)] | -0.007894% | –
46 | C1CCc2nnnn2CC1 [UM0118375:03, Pentylenetetrazole] | -0.7973% | –
47 | O=c1[nH]c2ccccc2n1C1CCN(CCCC(c2ccc(F)cc2)c2ccc(F)cc2)CC1 [UM0118378:03, Pimozide] | 11.2% | –
48 | Cc1ncc(C[n+]2csc(CCO)c2C)c(N)n1 [UM0118406:03, Thiamine HCl (Vitamin B1)] | -1.554% | –

Row | Structure (SMILES) | Inh (PKA) [1] | also measured
49 | Nc1ccc(S(=O)(=O)Nc2ccnn2-c2ccccc2)cc1 [UM0118414:03, Sulfaphenazole] | 2.527% | –
50 | Nc1nc(N)c2nc(-c3ccccc3)c(N)nc2n1 [UM0118431:03, Triamterene] | 1.702% | –
51 | CN1CCN(CCCN2c3ccccc3Sc3ccc(C(F)(F)F)cc32)CC1 [UM0118432:03, Trifluoperazine 2HCl] | 8.71% | –
52 | Clc1ccccc1CN1CCc2sccc2C1 [UM0118440:03, Ticlopidine HCl] | 23.02% | –
53 | CCc1nc(N)nc(N)c1-c1ccc(Cl)cc1 [UM0118442:03, Pyrimethamine] | 0.5127% | –
54 | Cc1cccc(Nc2ccccc2C(=O)O)c1C [UM0118444:03, Mefenamic Acid] | 19.56% | –
55 | CN1CCN2c3ccccc3Cc3ccccc3C2C1 (stereo not drawn) [UM0118451:03, Mianserin HCl] | 11.82% | –
56 | C[N+]1(C)CCC(=C(c2ccccc2)c2ccccc2)CC1 [UM0118457:03, Diphemanil Methylsulfate] | -0.1303% | –
57 | COc1ccc2c(c1)c(CC(=O)O)c(C)n2C(=O)c1ccc(Cl)cc1 [UM0118515:03, Indomethacin] | 5.004% | –
58 | CS(=O)(=O)Nc1ccc([N+](=O)[O-])cc1Oc1ccccc1 [UM0118531:03, Nimesulide] | 82.23% | –
59 | CCCCOc1ccc(CC(=O)NO)cc1 [UM0118579:03, Bufexamac] | 1.558% | –
60 | CCCCNc1cc(C(=O)O)cc(S(N)(=O)=O)c1Oc1ccccc1 [UM0118581:03, Bumetanide] | 2.877% | –
61 | CC(C)CC(=O)N[C@H](C(=O)N[C@H](C(=O)N[C@@H](CC(C)C)[C@@H](O)CC(=O)N[C@@H](C)C(=O)N[C@@H](CC(C)C)[C@@H](O)CC(=O)O)C(C)C)C(C)C [UM0118622:03, Pepstatin A] (Isovaleryl-VV[Sta]A[Sta]-OH) | 1.204% | –
62 | C[C@](N)(Cc1ccc(O)c(O)c1)C(=O)O [UM0118624:04, Methyldopa] | -0.4014% | –
63 | Nc1c2c(nc3ccccc13)CCCC2 [UM0118625:03, Tacrine hydrochloride] | 1.154% | –
64 | C#CCN(C)CCCOc1ccc(Cl)cc1Cl [UM0118650:03, Clorgyline (hydrochloride)] | 10.49% | –
65 | COc1cccc2c1C(=O)c1c(O)c3c(c(O)c1C2=O)C[C@@](O)(C(C)=O)C[C@@H]3O[C@H]1C[C@H](N)[C@H](O)[C@H](C)O1 [UM0118677:04, Daunorubicin HCl] | 42.12% | –
66 | CNCCC(Oc1ccc(C(F)(F)F)cc1)c1ccccc1 (stereo not drawn) [UM0118682:03, Fluoxetine HCl] | 5.529% | –
67 | CC(=O)Oc1cc(C(F)(F)F)ccc1C(=O)O [UM0118728:03, Triflusal] | 6.12% | –
68 | CCCc1ncc(C[n+]2ccccc2C)c(N)n1 [UM0118750:03, Amprolium HCl] | -0.09679% | –
69 | Cc1cc2c(cc1S(N)(=O)=O)S(=O)(=O)CCC2 [UM0118751:03, Meticrane] | 1.197% | –
70 | COc1cc2nc(N3CCN(C(=O)C4COc5ccccc5O4)CC3)nc(N)c2cc1OC (stereo not drawn) [UM0118850:03, Doxazosin Mesylate] | 2.176% | –
71 | Cc1cc2c(C(C)C)c(O)c(O)c(C=O)c2c(O)c1-c1c(C)cc2c(C(C)C)c(O)c(O)c(C=O)c2c1O [UM0118855:03, Gossypol] | 56.08% | –
72 | NS(=O)(=O)c1cc(Cl)c(Cl)c(S(N)(=O)=O)c1 [UM0118893:03, Dichlorphenamide] | -0.9742% | –

From article PMC9995496, “A screen for MeCP2-TBL1 interaction inhibitors using a luminescence-based assay” (Scientific Reports, 2023)
